For this assay, the target named is T1, Mos1 transposase (MOS1) (Drosophila mauritiana, UniProt Q7JQ07).
T1 construct: involving the full-length Mos1 transposase (MOS1) was recently solved; made in house
In words: MOS1 in vitro ITR integration assay. It is filed as biochemical, D. mauritiana. The conditions noted are these: for inhibition of the integration step: 25 and 10 µM, molecules added after formation of MOS1-ITR complexes. The protocol: These assays were performed using pre-cleaved 3′ITRs (PC-ITR), i.e. ITRs in the configuration expected after excision. […]. Prior to annealing, the transferred strand (70-TS-PC) was 5′-end labelled using T4 polynucleotide kinase (Promega) and γ-^32P-ATP following the manufacturer's instructions. Oligonucleotides were provided by Eurofins MWG Biotech (Germany) or Eurogentec (Belgium). Reaction mixtures containing 10 mM Tris-HCl (pH 9), 50 mM NaCl, 1 mM DTT, 5% glycerol, 100 ng BSA, 100 nM of labelled PC-ITR and 100 nM MBP-MOS1 in a final volume of 20 µl were incubated at 30°C for 30 min. The pBC plasmid (which contained the cat gene, a hot-spot for Mos1 insertion) was then added to 30 ng/µL along with 5 mM MgCl2. Molecules (25 or 10 µM, as specified) or DMSO (2%) were added to the reaction mixtures along with the target DNA to estimate their effect on integration. Reactions were carried out for 3 hours at 30°C. 0.1 mg/ml proteinase K and 0.1% SDS were added to stop the reaction. DNA products were purified by phenol-chloroform extraction and ethanol precipitated using standard techniques. DNA products were resuspended in DNA loading buffer, then separated onto a 1% agarose gel in 1X TAE (Tris Acetate EDTA) buffer. The gel was dried onto a nitrocellulose membrane (Hybond N+, GE Healthcare), scanned using a Storm, and analysed with ImageQuant software. Signals were quantified using ImageQuant software. Efficiency of integration was calculated as the intensity of the integration signal divided by the intensity of free target signal plus integration signal. Each condition was tested at least twice.
The assay used for this step is similar to the HIV-1 IN concerted integration. Briefly, pre-cleaved labelled ITRs are used to form the integration complex. A super-coiled plasmid is used as target DNA. Integration events give a linear labelled plasmid, which can be detected. In these tests, the molecules are added after formation of MOS1-ITR complexes, along with a target plasmid to solely examine the integration inhibition. […] Controls correspond to assays performed without molecule but with DMSO. Reactions were performed at least twice for each selected molecule (leachianol G, leachianol F, quadrangularin A, hopeaphenol, vitisin B and pallidol) and the excision activity is shown in figure 8B .

T1 sequence (Q7JQ07 whole entry): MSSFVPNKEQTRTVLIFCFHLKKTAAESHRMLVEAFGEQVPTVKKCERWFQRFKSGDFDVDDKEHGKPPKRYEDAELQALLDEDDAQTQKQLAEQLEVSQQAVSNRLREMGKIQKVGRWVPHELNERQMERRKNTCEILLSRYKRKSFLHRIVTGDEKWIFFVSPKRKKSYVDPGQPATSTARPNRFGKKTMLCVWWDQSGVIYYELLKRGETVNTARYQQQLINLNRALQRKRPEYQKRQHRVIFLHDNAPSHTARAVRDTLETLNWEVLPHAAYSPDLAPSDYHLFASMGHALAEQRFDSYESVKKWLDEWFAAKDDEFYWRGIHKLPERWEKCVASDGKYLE

Regarding `Oc1ccc([C@@H]2c3c(O)cc(O)cc3[C@H]3c4c(cc(O)cc4C2C2c4cc(O)cc5c4[C@H](c4cc(O)cc(O)c4[C@H]2c2ccc(O)cc2)[C@@H](c2ccc(O)cc2)O5)O[C@@H]3c2ccc(O)cc2)cc1` (stereo partly shown) [hopeaphenol], the IC50 (usually the point on the concentration scale where inhibition reaches its midpoint) is ~6.5 µM and the “inhibition of the integration step” value is recorded as “significantly inhibited”.
For `Oc1ccc([C@@H]2c3c(O)cc(O)cc3[C@H]3[C@H](c4ccc(O)cc4)c4c(O)cc(O)cc4[C@@H]23)cc1` [pallidol], the IC50 is ~10 µM and the “inhibition of the integration step” value is “significantly inhibited”.
